In paper PMC6557200, “Correction: First-in-human phase 1 study of the BTK inhibitor GDC-0853 in relapsed or refractory B-cell NHL and CLL” (Oncotarget, 2019):
Read-outs that look alike come from different tables or passages of the source.

Assay: First-in-human phase 1 study: pharmacokinetics parameters of GDC-0853 (plasma) on day 1 and day 15
Format: in vivo
Settings: for AUC(0-inf): read-out: Day 1 AUC0-inf Mean (%CV)
From the text: Table 3 Summary of pharmacokinetics parameters for GDC-0853 on day 1 and day 15 (cohorts 1, 2, and 3, with 100, 200, and 400-mg GDC-0853, respectively) | column: Day 1 T1/2 (hr) Mean (%CV); Day 1 Tmax^a (hr) Median (range); Day 1 Cmax (μM) Mean (%CV); Day 1 AUC0-inf (hr•μM) Mean (%CV); Day 1 AUC0-24 (hr*μM) Mean (%CV); Day 15 Tmax^a(hr) Median (range); Day 15 Cmax (μM) Mean (%CV); Day 15 AUC0- 24 (hr•μM) Mean (%CV); Day 15 Accumulation Ratio Mean (%CV)

Day 15 Accumulation Ratio Mean (%CV) (100 mg (n = 6), cohort 1, day 15): 1.78 (58.4)
Day 15 Accumulation Ratio Mean (%CV) (200 mg (n = 9), cohort 2, day 15): 1.44 (77.9)
Day 15 Accumulation Ratio Mean (%CV) (400 mg (n = 9), cohort 3, day 15): 1.91 (102)
Cmax (human, plasma, 100 mg, 100 mg (n = 6), cohort 1, day 1, plasma, read-out: Day 1 Cmax Mean (%CV)): 119 nM
AUC(0-t) (human, plasma, 100 mg, 100 mg (n = 6), cohort 1, day 1, read-out: Day 1 AUC0-24 Mean (%CV)): 0.67 µM·h
AUC(0-t) (human, plasma, 100 mg, 100 mg (n = 6), cohort 1, day 15, read-out: Day 15 AUC0-24 Mean (%CV)): 1.2 µM·h
Cmax (human, plasma, 200 mg, 200 mg (n = 9), cohort 2, day 1, plasma, read-out: Day 1 Cmax Mean (%CV)): 571 nM
AUC(0-t) (human, plasma, 200 mg, 200 mg (n = 9), cohort 2, day 1, read-out: Day 1 AUC0-24 Mean (%CV)): 2.54 µM·h
Cmax (human, plasma, 200 mg, 200 mg (n = 9), cohort 2, day 15, plasma, read-out: Day 15 Cmax Mean (%CV)): 614 nM
AUC(0-t) (human, plasma, 200 mg, 200 mg (n = 9), cohort 2, day 15, read-out: Day 15 AUC0-24 Mean (%CV)): 2.83 µM·h
Cmax (human, plasma, 400 mg, 400 mg (n = 9), cohort 3, day 1, plasma, read-out: Day 1 Cmax Mean (%CV)): 1440 nM
AUC(0-t) (human, plasma, 400 mg, 400 mg (n = 9), cohort 3, day 1, read-out: Day 1 AUC0-24 Mean (%CV)): 6.95 µM·h
Cmax (human, plasma, 400 mg, 400 mg (n = 9), cohort 3, day 15, plasma, read-out: Day 15 Cmax Mean (%CV)): 1390 nM
AUC(0-t) (human, plasma, 400 mg, 400 mg (n = 9), cohort 3, day 15, read-out: Day 15 AUC0-24 Mean (%CV)): 7.74 µM·h
AUC(0-inf) (human, plasma, 100 mg (n = 6), cohort 1, day 1): 0.861 µM·h
AUC(0-inf) (human, plasma, 200 mg (n = 9), cohort 2, day 1): 3.42 µM·h
Tmax (human, plasma, 200 mg (n = 9), cohort 2, day 15, read-out: Day 15 Tmax Median (range)): 2.1 h
AUC(0-inf) (human, plasma, 400 mg (n = 9), cohort 3, day 1): 7.57 µM·h
Structure (SMILES): C[C@H]1CN(C2COC2)CCN1c1ccc(Nc2cc(-c3ccnc(N4CCn5c(cc6c5CC(C)(C)C6)C4=O)c3CO)cn(C)c2=O)nc1 [GDC-0853]
